From PubChem BioAssay (NCI)
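Assay format: 96-well plates, 48-hour exposure. GI50 = concentration required for 50% inhibition of growth. The concentration for full growth arrest is given as TGI.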

Legend:
Test in all cases: DTP human tumour cell line panel, 48 h
HCT-15 colon = system: HCT-15 colon
ACHN renal = system: ACHN renal
SF-268 CNS = system: SF-268 CNS
SN12C renal = system: SN12C renal
OVCAR-3 ovarian = system: OVCAR-3 ovarian
MCF7 breast = system: MCF7 breast
LOX IMVI melanoma = system: LOX IMVI melanoma
MDA-MB-231 breast = system: MDA-MB-231 breast
NCI-H226 lung = system: NCI-H226 lung
SF-295 CNS = system: SF-295 CNS

SMILES | TGI (HCT-15 colon) | TGI (ACHN renal) | TGI (SF-268 CNS) | TGI (SN12C renal) | TGI (OVCAR-3 ovarian) | TGI (MCF7 breast) | TGI (LOX IMVI melanoma) | TGI (MDA-MB-231 breast) | TGI (NCI-H226 lung) | TGI (SF-295 CNS) | GI50 (HCT-15 colon) | GI50 (ACHN renal) | GI50 (SF-268 CNS) | GI50 (SN12C renal) | GI50 (OVCAR-3 ovarian) | GI50 (MCF7 breast) | GI50 (LOX IMVI melanoma) | GI50 (MDA-MB-231 breast) | GI50 (NCI-H226 lung) | GI50 (SF-295 CNS)
CN(C)CCNc1ccc2c(=O)n(CCN(C)C)c(=O)n3c4ccc([N+](=O)[O-])cc4c(=O)c1c23 | 1.49 µM | 3.83 µM | 3.33 µM | 1.56 µM | 2.27 µM | 1.04 µM | 1.1 µM | 2.21 µM | 4.01 µM | 2.31 µM |  |  |  |  |  |  |  |  |  | 
COc1ccc(C2SCC(=O)N2c2ccc(-n3c(-c4ccccc4)nc4ccccc4c3=O)cc2)cc1OC (stereo not given) | > 100 µM | > 100 µM | > 100 µM | > 100 µM | > 100 µM | > 100 µM | > 100 µM | > 100 µM | > 100 µM | > 100 µM |  |  |  |  |  |  |  |  |  | 
O=C1C(/C=C/c2ccc(Cl)cc2)=NNC2N1N=C1NC(=O)C3(NN12)c1ccccc1-c1ccccc13 (stereo not given) | > 100 µM | > 100 µM | > 100 µM | > 100 µM | > 100 µM | > 100 µM | > 100 µM | > 100 µM | > 100 µM | > 100 µM |  |  |  |  |  |  |  |  |  | 
COc1ccc2nc3ccc(OC)cc3c(S(=O)(=O)Cc3ccc([N+](=O)[O-])cc3)c2c1 | > 100 µM | > 100 µM | > 100 µM | > 100 µM | > 100 µM | > 100 µM | > 100 µM | > 100 µM | > 100 µM | > 100 µM |  |  |  |  |  |  |  |  |  | 
O=c1[nH]c(Nc2cccc(C(F)(F)F)c2)nc2nc[nH]c12 | > 100 µM | > 100 µM | > 100 µM | > 100 µM | > 100 µM | > 100 µM | > 100 µM | > 100 µM | > 100 µM | > 100 µM |  |  |  |  |  |  |  |  |  | 
CCCCCNc1nonc1N | > 100 µM | > 100 µM | > 100 µM | > 100 µM | > 100 µM | > 100 µM | > 100 µM | > 100 µM | > 100 µM | > 100 µM |  |  |  |  |  |  |  |  |  | 
O=c1[nH]c(=O)n(C2CC(O)C(CO)O2)cc1OCCCc1ccccc1 (stereo not given) | > 100 µM | > 100 µM | > 100 µM | > 100 µM | > 100 µM | > 100 µM | > 100 µM | > 100 µM | > 100 µM | > 100 µM |  |  |  |  |  |  |  |  |  | 
CN(C)c1ccc(/C=C(\C#N)C(N)=C(C#N)C#N)cc1 | > 100 µM | > 100 µM | > 100 µM | > 100 µM | > 100 µM | > 100 µM | > 100 µM | > 100 µM | > 100 µM | > 100 µM |  |  |  |  |  |  |  |  |  | 
COCC1CCCN1c1ccc(/C=C(/C#N)C(N)=S)cc1 (stereo not given) | > 100 µM | > 100 µM | > 100 µM | > 100 µM | > 100 µM | > 100 µM | > 100 µM | 55.8 µM | > 100 µM | > 100 µM | > 100 µM | > 100 µM | > 100 µM | 30.5 µM | > 100 µM | 69.4 µM | > 100 µM | 9.89 µM | 34.6 µM | > 100 µM
CC(=O)C(=[N+]=[N-])C(=O)OC(C)(C)C#N | > 10 µM | > 10 µM | > 10 µM | > 10 µM | > 10 µM | > 10 µM | > 10 µM | > 10 µM | > 10 µM | > 10 µM |  |  |  |  |  |  |  |  |  | 
CC(C)C1(C)N=C(C(F)(F)F)c2cc(C(=O)C(F)(F)F)c3ccccc3c2N1 (stereo not given) | 14.1 µM | 12 µM | 13.7 µM | 11 µM | 10.6 µM | 14.7 µM | 7.01 µM | 11.2 µM | 30.4 µM | 11.8 µM |  |  |  |  |  |  |  |  |  | 
CC1(C)C(=O)C(C)(C)C12SSC1(S2)C(C)(C)C(=O)C1(C)C | > 100 µM | > 100 µM | > 100 µM | > 100 µM | > 100 µM | > 100 µM | > 100 µM | > 100 µM | > 100 µM | > 100 µM |  |  |  |  |  |  |  |  |  | 
CCCCCCOc1ccc(C(=O)NOCc2ccccc2)cc1 | > 100 µM | > 100 µM | > 100 µM | > 100 µM | > 100 µM | > 100 µM | > 100 µM | > 100 µM | > 100 µM | > 100 µM |  |  |  |  |  |  |  |  |  | 
CCc1n[nH]c(=O)n1/N=C/c1ccccc1Cl | > 100 µM | > 100 µM | > 100 µM | > 100 µM | > 100 µM | > 100 µM | > 100 µM | > 100 µM | > 100 µM | > 100 µM |  |  |  |  |  |  |  |  |  | 
O=C(O)C1CCCN1Cc1cc2ccccc2c2ccccc12 (stereo not given) | > 100 µM | > 100 µM | > 100 µM | > 100 µM | > 100 µM | > 100 µM | > 100 µM | > 100 µM | > 100 µM | > 100 µM |  |  |  |  |  |  |  |  |  | 
CCCc1cc(=O)oc2c3c(c4c(c12)OC(C)(C)C=C4)O[C@@H](C)[C@H](C)C3=O | 46.1 µM | 24.9 µM | 45.2 µM | 41.4 µM | 49.1 µM | 46.3 µM | 37.3 µM | 33.2 µM | 41.6 µM | 31.7 µM |  |  |  |  |  |  |  |  |  | 
CC1(C)N=C(C(N)=O)c2ncn(-c3ccccc3)c2N1 | > 100 µM | > 100 µM | > 100 µM | > 100 µM | > 100 µM | > 100 µM | > 100 µM | > 100 µM | > 100 µM | > 100 µM |  |  |  |  |  |  |  |  |  | 
